Like-named read-outs stand apart in the source and are kept apart here.
Columns and labels:
BromoTag-Brd2 = experiment: Dose–response degradation assay (western blot, 6 h) in heterozygous BromoTag-Brd2 HEK293 cells; type: cell-based, human; details: for DC50 / Dmax of BromoTag-Brd2 degradation / hook effect: 6 h; for DC50: read-out: DC50 of BromoTag-Brd2 degradation; for Dmax (%) (Ab: Brd2) / Dmax (%) (Ab: Brd4^BD2 L387A) / pDC50 (Ab: Brd2) / pDC50 (Ab: Brd4^BD2 L387A): BromoTagged-Brd2, 6 h; for pDC50 (Ab: Brd2) / pDC50 (Ab: Brd4^BD2 L387A): mean ±S.E of three independent experiments; for hook effect: higher concentrations of 1–10 μM; for pDmax (%) (Ab: Brd4BD2 L387A) / pDmax (%) (Ab:Brd2): supplementary CSV
Description: All dose–response degradation assays were performed on the genotype-verified heterozygous BromoTag-Brd2 HEK293 cell line. Heterozygous BromoTag-Brd2 HEK293 cells were plated at a density of 5 × 10^5 cells per well of a six-well healthy plate a day before initiation of the titration experiment. PROTAC compounds were dissolved in DMSO at a concentration of 10 mM; from these stock concentrations, PROTAC compounds were diluted to appropriate concentrations using DMSO in the range of 10 μM to 1 nM. […] Control compounds such as MZ1 and cis-MZ1 were similarly dissolved in DMSO to an appropriate concentration. […] The cells were washed twice with PBS before being harvested.
The membranes were blocked for 1 h prior to incubation with the primary antibodies using 5% Milk TBST. […] Following overnight incubation with the primary antibodies at 4 °C, the membranes were incubated with secondary antibodies (anti-rabbit, Abcam AB216773, 1:5000 or anti-mouse, Abcam AB216774, 1:5000) and hFABTM rhodamine anti-tubulin antibody (Biorad, 12004165, 1:10,000) for 1 h and then imaged with a Bio-Rad imager (LI-COR Biosciences). All western blots were analyzed for band intensities using Image Lab from Bio-Rad (LI-COR, Biosciences). The data extracted from these blots were then plotted and analyzed using Prism (v. 8.2.0, GraphPad).

[1] = tested on: untagged Brd2, Brd3, Brd4; experiment: Off-target degradation of endogenous BET proteins (western blot) in heterozygous BromoTag-Brd2 HEK293 cells; type: cell-based, human
Description: To establish the BromoTag platform and support the degrader structure–activity relationships (SARs) to identify the best compound, we sought a practical and simple system that enables us to best optimize not only the degradation efficiency but also the selectivity profile of our degraders. To this end, the endogenous BET family protein Brd2 was chosen as a model target due to the availability of a well-established antibody for Brd2 detection, and the expression of a single protein isoform detected as a single band in the western blot.[24] Because Brd2 contains endogenous bromodomains and is degraded by 1 and other BET PROTACs, we reasoned that a heterozygous knock-in cell line allows us to monitor simultaneously both on-target degradation (BromoTagged-Brd2) and off-target degradation (untagged Brd2) using the same antibody. Together with the potential off-target degradation of the other BET proteins Brd3 and Brd4, this system thus enables us to best monitor protein degradation selectivity. We therefore decided to add the BromoTag at the N-terminus of the endogenous Brd2 gene locus using CRISPR knock-in methodologies, thereby yielding a chimeric protein bearing three bromodomains (the exogenous BromoTag, in addition to the endogenous Brd2^BD1 and Brd2^BD2). Hereafter, we refer to on-target activity as the degradation of BromoTag-Brd2 and off-target activity as any degradation of either untagged Brd2 or endogenous Brd3 or Brd4.
All dose–response degradation assays were performed on the genotype-verified heterozygous BromoTag-Brd2 HEK293 cell line. Heterozygous BromoTag-Brd2 HEK293 cells were plated at a density of 5 × 10^5 cells per well of a six-well healthy plate a day before initiation of the titration experiment. PROTAC compounds were dissolved in DMSO at a concentration of 10 mM; from these stock concentrations, PROTAC compounds were diluted to appropriate concentrations using DMSO in the range of 10 μM to 1 nM. The compounds were then added to 2 mL of DMEM (Invitrogen, Carlsbad, CA, USA) supplemented with 10% (v/v) FBS (Thermo Fisher, Waltham, MA, USA) and 1% (v/v) penicillin/streptomycin (pen/strep) (#15140122, Thermo Fisher, Waltham, MA, USA) and added to the cells while initiating the experiment. Control compounds such as MZ1 and cis-MZ1 were similarly dissolved in DMSO to an appropriate concentration. All titration experiments were performed for a total of 6 h prior to being harvested and were kept at 37 °C, 5% CO2, and 95% humidity once treatment was applied until right before harvesting. The cells were washed twice with PBS before being harvested.
All cells were harvested on ice with RIPA lysis and extraction buffer (Thermo Fisher Scientific, 89901) supplemented with protease inhibitor cocktail (Merck, 11697498001) and Benzonase Nuclease (Sigma, E1014) before being stored at −20 °C prior to use. Total protein quantity was determined using the BCA protein assay (#23225, Pierce, Rockford, Illinois). The protein concentration was determined using the BCA assay (Thermo Fisher Scientific, 23225). The samples were then prepared and loaded onto NuPAGE 4–12% bis–tris Midi gels (Thermo Fisher Scientific, WG1403A), followed by the transfer of proteins onto nitrocellulose membranes (EMD Millipore). The membranes were blocked for 1 h prior to incubation with the primary antibodies using 5% Milk TBST. The membranes were probed for Brd2 (Abcam, Ab139690, 1:1000), Brd3 (Abcam, Ab50818, 1:4000), Brd4 (Abcam, Ab128874, 1:1000), or our polyclonal Brd4^BD2 L387A antibody. Following overnight incubation with the primary antibodies at 4 °C, the membranes were incubated with secondary antibodies (anti-rabbit, Abcam AB216773, 1:5000 or anti-mouse, Abcam AB216774, 1:5000) and hFABTM rhodamine anti-tubulin antibody (Biorad, 12004165, 1:10,000) for 1 h and then imaged with a Bio-Rad imager (LI-COR Biosciences). All western blots were analyzed for band intensities using Image Lab from Bio-Rad (LI-COR, Biosciences). […]

[2] = diastereomeric mixtures, range over the two antibodies
[3] = 1 nM to 10 μM, 6 h, diastereomeric mixtures

Row | SMILES | DC50 (BromoTag-Brd2; diastereomeric mixture) [nM] | Dmax of BromoTag-Brd2 degradation (BromoTag-Brd2; diastereomeric mixtures) [%] | Dmax (%) (Ab: Brd2) (BromoTag-Brd2; diastereomeric mixtures) | Dmax (%) (Ab: Brd4^BD2 L387A) (BromoTag-Brd2; diastereomeric mixtures) | pDC50 (Ab: Brd2) (BromoTag-Brd2; diastereomeric mixtures) | pDC50 (Ab: Brd4^BD2 L387A) (BromoTag-Brd2; diastereomeric mixtures) | hook effect (BromoTag-Brd2; diastereomeric mixtures) | pDmax (%) (Ab: Brd4BD2 L387A) (BromoTag-Brd2) | pDmax (%) (Ab:Brd2) (BromoTag-Brd2) | off-target degradation of untagged Brd2 or the other endogenous BET proteins [1] | DC50 (BromoTag-Brd2; [2]) [nM] | off-target degradation of untagged Brd2 or the other endogenous BET proteins [1, 3]
1 | CCC(C(=O)NCCOCCCOCC(=O)N[C@H](C(=O)N1C[C@H](O)C[C@H]1C(=O)N[C@@H](C)c1ccc(-c2scnc2C)cc1)C(C)(C)C)C1N=C(c2ccc(Cl)cc2)c2c(sc(C)c2C)-n2c(C)nnc21 (relative stereo) [ET-ARV-771 (21), (2S,4R)-1-((2S,15R*)-2-(tert-Butyl)-15-((S*)-4-(4-chlorophenyl)-2,3,9-trimethyl-6H-thieno[3,2-f][1,2,4]triazolo[4,3-a][1,4]diazepin-6-yl)-4,14-dioxo-6,10-dioxa-3,13-diazaheptadecanoyl)-4-hydroxy-N-((S)-1-(4-(4-methylthiazol-5-yl)phenyl)ethyl)pyrrolidine-2-carboxamide] | ~1000 | < 70 | 51 | 69 | 5.7 ± 1.8 | 6.1 ± 0.3 | strong hook effect | 69 | 51 |  |  | 
2 | CCC(C(=O)NCCOCCOCCOCC(=O)N[C@H](C(=O)N1C[C@H](O)C[C@H]1C(=O)NCc1ccc(-c2scnc2C)cc1)C(C)(C)C)C1N=C(c2ccc(Cl)cc2)c2c(sc(C)c2C)-n2c(C)nnc21 (relative stereo) [ET-MZ1 (19), (2S,4R)-1-((2S,17R*)-2-(tert-Butyl)-17-((S*)-4-(4-chlorophenyl)-2,3,9-trimethyl-6H-thieno[3,2-f][1,2,4]triazolo[4,3-a][1,4]diazepin-6-yl)-4,16-dioxo-6,9,12-trioxa-3,15-diazanonadecanoyl)-4-hydroxy-N-(4-(4-methylthiazol-5-yl)benzyl)pyrrolidine-2-carboxamide] |  |  |  |  | 6.5 ± 0.2 | 6.6 ± 0.6 | no hook effect |  |  | no observable off-target degradation | 250 to 360 | 
3 | CC[C@@H](C(=O)OCCOCCCOCC(=O)N[C@H](C(=O)N1C[C@H](O)C[C@H]1C(=O)N[C@@H](C)c1ccc(-c2scnc2C)cc1)C(C)(C)C)[C@@H]1N=C(c2ccc(Cl)cc2)c2c(sc(C)c2C)-n2c(C)nnc21 (relative stereo) [ET-OARV-771 (25), 2-(3-(2-(((S)-1-((2S,4R)-4-Hydroxy-2-(((S)-1-(4-(4-methylthiazol-5-yl)phenyl)ethyl)carbamoyl)pyrrolidin-1-yl)-3,3-dimethyl-1-oxobutan-2-yl)amino)-2-oxoethoxy)propoxy)ethyl (R*)-2-((S*)-4-(4-chlorophenyl)-2,3,9-trimethyl-6H-thieno[3,2-f][1,2,4]triazolo[4,3-a][1,4]diazepin-6-yl)butanoate] |  | > 75 |  |  |  |  | strong onset of the hook effect |  |  | minor off-target degradation of Brd3 | 13 to 16 | 
4 | CCC(C(=O)OCCOCCOCCOCC(=O)N[C@H](C(=O)N1C[C@H](O)C[C@H]1C(=O)NCc1ccc(-c2scnc2C)cc1)C(C)(C)C)C1N=C(c2ccc(Cl)cc2)c2c(sc(C)c2C)-n2c(C)nnc21 (relative stereo) [ET-OMZ1 (23), (S)-13-((2S,4R)-4-Hydroxy-2-((4-(4-methylthiazol-5-yl)benzyl)carbamoyl)pyrrolidine-1-carbonyl)-14,14-dimethyl-11-oxo-3,6,9-trioxa-12-azapentadecyl (R*)-2-((S*)-4-(4-chlorophenyl)-2,3,9-trimethyl-6H-thieno[3,2-f][1,2,4]triazolo[4,3-a][1,4]diazepin-6-yl)butanoate] |  | > 75 |  |  | 7.9 ± 0.2 | 7.1 | strong onset of the hook effect |  |  | no observable off-target degradation | 13 to 80 | 
5 | Cc1ncsc1-c1ccc([C@H](C)NC(=O)[C@@H]2C[C@@H](O)CN2C(=O)[C@@H](NC(=O)COCCCOCCNC(=O)C(C)C2N=C(c3ccc(Cl)cc3)c3c(sc(C)c3C)-n3c(C)nnc32)C(C)(C)C)cc1 (relative stereo) [ME-ARV-771 (20), (2S,4R)-1-((2S,15R*)-2-(tert-Butyl)-15-((S*)-4-(4-chlorophenyl)-2,3,9-trimethyl-6H-thieno[3,2-f][1,2,4]triazolo[4,3-a][1,4]diazepin-6-yl)-4,14-dioxo-6,10-dioxa-3,13-diazahexadecanoyl)-4-hydroxy-N-((S)-1-(4-(4-methylthiazol-5-yl)phenyl)ethyl)pyrrolidine-2-carboxamide] |  |  | 60 | 70 | 6.4 ± 0.6 | 6.5 ± 0.4 |  | 70 | 60 |  |  | induced undesired off-target degradation
6 | Cc1ncsc1-c1ccc(CNC(=O)[C@@H]2C[C@@H](O)CN2C(=O)[C@@H](NC(=O)COCCOCCOCCNC(=O)C(C)C2N=C(c3ccc(Cl)cc3)c3c(sc(C)c3C)-n3c(C)nnc32)C(C)(C)C)cc1 (relative stereo) [ME-MZ1 (18), (2S,4R)-1-((2S,17R*)-2-(tert-Butyl)-17-((S*)-4-(4-chlorophenyl)-2,3,9-trimethyl-6H-thieno[3,2-f][1,2,4]triazolo[4,3-a][1,4]diazepin-6-yl)-4,16-dioxo-6,9,12-trioxa-3,15-diazaoctadecanoyl)-4-hydroxy-N-(4-(4-methylthiazol-5-yl)benzyl)pyrrolidine-2-carboxamide] |  |  |  |  |  |  |  | 90 | 92 |  |  | induced undesired off-target degradation
7 | Cc1ncsc1-c1ccc([C@H](C)NC(=O)[C@@H]2C[C@@H](O)CN2C(=O)[C@@H](NC(=O)COCCCOCCOC(=O)C(C)C2N=C(c3ccc(Cl)cc3)c3c(sc(C)c3C)-n3c(C)nnc32)C(C)(C)C)cc1 (relative stereo) [ME-OARV-771 (24), 2-(3-(2-(((S)-1-((2S,4R)-4-Hydroxy-2-(((S)-1-(4-(4-methylthiazol-5-yl)phenyl)ethyl)carbamoyl)pyrrolidin-1-yl)-3,3-dimethyl-1-oxobutan-2-yl)amino)-2-oxoethoxy)propoxy)ethyl (R*)-2-((S*)-4-(4-chlorophenyl)-2,3,9-trimethyl-6H-thieno[3,2-f][1,2,4]triazolo[4,3-a][1,4]diazepin-6-yl)propanoate] |  |  |  |  |  |  |  | 91 | 91 |  |  | induced undesired off-target degradation
